US8431593B2, “Heteroaryl amide derivatives” (H. Lundbeck A/S, priority 2006, dated 2013)
Like-named read-outs stand apart in the source and are kept apart here.

Target: T1, P2X7 receptor (Homo sapiens, UniProt Q99572)
T1 construct: host or cells: SH-SY5Y
T1 sequence (Q99572 1-595): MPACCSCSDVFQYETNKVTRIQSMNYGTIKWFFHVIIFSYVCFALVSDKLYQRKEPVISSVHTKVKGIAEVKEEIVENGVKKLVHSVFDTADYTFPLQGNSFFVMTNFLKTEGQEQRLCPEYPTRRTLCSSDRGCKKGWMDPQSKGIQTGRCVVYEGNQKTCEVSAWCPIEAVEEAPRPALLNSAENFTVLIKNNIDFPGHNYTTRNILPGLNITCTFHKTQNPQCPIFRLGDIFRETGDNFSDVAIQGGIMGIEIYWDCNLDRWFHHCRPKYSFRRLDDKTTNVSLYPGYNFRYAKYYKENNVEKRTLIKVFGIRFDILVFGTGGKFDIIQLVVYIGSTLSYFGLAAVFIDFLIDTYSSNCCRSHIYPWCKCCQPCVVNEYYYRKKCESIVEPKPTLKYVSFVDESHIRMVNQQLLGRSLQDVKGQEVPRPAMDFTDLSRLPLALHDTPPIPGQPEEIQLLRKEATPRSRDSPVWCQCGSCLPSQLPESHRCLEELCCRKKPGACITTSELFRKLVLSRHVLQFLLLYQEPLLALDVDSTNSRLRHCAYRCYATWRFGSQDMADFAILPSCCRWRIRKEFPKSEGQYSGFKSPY
Test: P2X7 calcium mobilization assay, high throughput, antagonist activity (Example 4A)
Assay type: cell-based
In short: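 Antagonism was measured as calcium fluorescence (FLIPR Tetra) in cells seeded one day earlier at 100,000/well, loaded with dye for 1 h and exposed to compound for 1 h at room temperature before agonist. Peak RFU, minus the no-agonist background, was referenced to the mean of the agonist wells.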

[1] = SH-SY5Y cells, 50% decrease in fluorescence response to 80 μM BzATP, read-out: IC50

SMILES	IC50 [1] [nM]	IC50 [nM]
NC1CCCN(CCc2cn3c(C(=O)NCC45CC6CC(CC(C6)C4)C5)cccc3n2)C1 (stereo not drawn) [Compound 118, 2-[2-(3-amino-piperidin-1-yl)-ethyl]-imidazo[1,2-a]pyridine-5-carboxylic acid (adamantan-1-ylmethyl)-amide]	< 2000	
O=C(NCC12CC3CC(CC(C3)C1)C2)c1cccc2nc(CCNC3CCNCC3)cn12 [Compound 119, 2-[2-(piperidin-4-ylamino)-ethyl]-imidazo[1,2-a]pyridine-5-carboxylic acid (adamantan-1-ylmethyl)-amide]	< 2000	
NC1CCN(Cc2cn3c(C(=O)NCC45CC6CC(CC(C6)C4)C5)cccc3n2)CC1 [Compound 120, N-(adamantan-1-ylmethyl)-2-[(4-aminopiperidin-1-yl)methyl]imidazo[1,2-a]pyridine-5-carboxamide]	< 2000	
NC1CCCN(Cc2cn3c(C(=O)NCC45CC6CC(CC(C6)C4)C5)cccc3n2)C1 (stereo not drawn) [Compound 121, N-(adamantan-1-ylmethyl)-2-[(3-aminopiperidin-1-yl)methyl]imidazo[1,2-a]pyridine-5-carboxamide]	< 2000	
NCCNCc1cn2c(C(=O)NCC34CC5CC(CC(C5)C3)C4)cccc2n1 [Compound 122, N-(adamantan-1-ylmethyl)-2-{[(2-aminoethyl)amino]methyl}imi-dazo[1,2-a]pyridine-5-carboxamide]		< 2000
NCCCNCc1cn2c(C(=O)NCC34CC5CC(CC(C5)C3)C4)cccc2n1 [Compound 123, N-(adamantan-1-ylmethyl)-2-{[(3-aminopropyl)amino]methyl}imi-dazo[1,2-a]pyridine-5-carboxamide]		< 2000
CNCCN(C)Cc1cn2c(C(=O)NCC34CC5CC(CC(C5)C3)C4)cccc2n1 [Compound 124, N-(adamantan-1-ylmethyl)-2-({methyl[2-(methylamino)eth-yl]amino}methyl)imi-dazo[1,2-a]pyridine-5-carboxamide]		< 2000
O=C(NCC12CC3CC(CC(C3)C1)C2)c1cccc2nc(CNCCN3CCOCC3)cn12 [Compound 125, N-(adamantan-1-ylmethyl)-2-{[(2-morpholin-4-ylethyl)amino]methyl}imi-dazo[1,2-a]pyridine-5-carboxamide]		< 2000
O=C(NCC12CC3CC(CC(C3)C1)C2)c1cccc2nc(CNCCN3CCCC3)cn12 [Compound 126, N-(adamantan-1-ylmethyl)-2-{[(2-pyrrolidin-1-ylethyl)amino]methyl}imi-dazo[1,2-a]pyridine-5-carboxamide]		< 2000
CN(C)CCOCc1cn2c(C(=O)NCC34CC5CC(CC(C5)C3)C4)cccc2n1 [Compound 127, N-(adamantan-1-ylmethyl)-2-{[2-(dimethylamino)eth-oxy]methyl}imi-dazo[1,2-a]pyridine-5-carboxamide]		< 2000
CCOC(=O)c1cn2c(C(=O)NCC(CC(C)C)c3ccccc3)cccc2n1 (stereo not drawn) [Compound 128, ethyl 5-[(4-methyl-2-phenyl-pentyl)carbamoyl]imi-dazo[1,2-a]pyridine-2-carboxylate]		< 2000
N[C@@H]1CCN(C(=O)c2cn3c(C(=O)NCC45CC6CC(CC(C6)C4)C5)cccc3n2)C1 [Compound 129, N-(adamantan-1-ylmethyl)-2-{[(3R)-3-aminopyrrolidin-1-yl]carbonyl}imidazo[1,2-a]pyridine-5-carboxamide]	< 2000	
NC1CN(Cc2cn3c(C(=O)NCC45CC6CC(CC(C6)C4)C5)cccc3n2)C1 [Compound 130, N-(adamantan-1-ylmethyl)-2-[(3-aminoazetidin-1-yl)methyl]imidazo[1,2-a]pyridine-5-carboxamide]	< 2000	
CN(CCO)Cc1cn2c(C(=O)NCC34CC5CC(CC(C5)C3)C4)cccc2n1 [Compound 131, N-(adamantan-1-ylmethyl)-2-{[(2-hydroxyethyl)(meth-yl)amino]methyl}imi-dazo[1,2-a]pyridine-5-carboxamide]		< 2000
CC(C)N(CCO)Cc1cn2c(C(=O)NCC34CC5CC(CC(C5)C3)C4)cccc2n1 [Compound 132, N-(adamantan-1-ylmethyl)-2-{[(2-hydroxyethyl)(iso-propyl)amino]methyl}imi-dazo[1,2-a]pyridine-5-carboxamide]		< 2000
COCCN(C)Cc1cn2c(C(=O)NCC34CC5CC(CC(C5)C3)C4)cccc2n1 [Compound 133, N-(adamantan-1-ylmethyl)-2-{[(2-methoxyethyl)(meth-yl)amino]methyl}imi-dazo[1,2-a]pyridine-5-carboxamide]		< 2000
O=C(NCC12CC3CC(CC(C3)C1)C2)c1cccc2nc(CN3CCC(O)C3)cn12 (stereo not drawn) [Compound 134, N-(adamantan-1-ylmethyl)-2-[(3-hydroxypyrrolidin-1-yl)methyl]imidazo[1,2-a]pyridine-5-carboxamide]	< 2000	

SMILES	IC50 [1] [nM]	IC50 [nM]
O=C(NCC12CC3CC(CC(C3)C1)C2)c1cccc2nc(CN3CCCC(O)C3)cn12 (stereo not drawn) [Compound 135, N-(adamantan-1-ylmethyl)-2-[(3-hydroxypiperidin-1-yl)methyl]imidazo[1,2-a]pyridine-5-carboxamide]	< 2000	
O=C(NCC12CC3CC(CC(C3)C1)C2)c1cccc2nc(CN(CCO)CCO)cn12 [Compound 136, N-(adamantan-1-ylmethyl)-2-{[bis(2-hydroxyeth-yl)amino]methyl}imi-dazo[1,2-a]pyridine-5-carboxamide]		< 2000
O=C(NCC12CC3CC(CC(C3)C1)C2)c1cccc2nc(CCN3C(=O)c4ccccc4C3=O)cn12 [Compound 137, N-(adamantan-1-ylmethyl)-2-[2-(1,3-dioxo-1,3-dihydro-2H-isoindol-2-yl)ethyl]imidazo[1,2-a]pyridine-5-carboxamide]	< 2000	
CC(C)CC(CNC(=O)c1cccc2nc(CCl)cn12)c1ccccc1 (stereo not drawn) [Compound 138, 2-(chloromethyl)-N-(4-methyl-2-phenylpentyl)imidazo[1,2-a]pyridine-5-carboxamide]	< 2000	
CCOC(=O)Cc1cn2c(C(=O)NCC(CC(C)C)c3ccccc3)cccc2n1 (stereo not drawn) [Compound 139, ethyl {5-[(4-methyl-2-phenylpentyl)car-bamoyl]imidazo[1,2-a]pyridin-2-yl}acetate]	< 2000	
C[C@H]1CN(C(=O)Cc2cn3c(C(=O)NCC45CC6CC(CC(C6)C4)C5)cccc3n2)CCN1 [Compound 140, N-(adamantan-1-ylmethyl)-2-{2-[(3S)-3-methylpiperazin-1-yl]-2-oxoethyl}imidazo[1,2-a]pyridine-5-carboxamide]	< 2000	
CCOC(=O)Cc1cn2c(C(=O)NCC3CCCCC3)cccc2n1 [Compound 141, ethyl {5-[(cyclohexylmethyl)car-bamoyl]imidazo[1,2-a]pyridin-2-yl}acetate]	< 2000	
O=C(NCC1CCCCC1)c1cccc2nc(CCl)cn12 [Compound 142, 2-(chloromethyl)-N-(cyclohexylmethyl)imi-dazo[1,2-a]pyridine-5-carboxamide]		< 2000
CCOC(=O)c1cn2c(NC(=O)CC34CC5CC(CC(C5)C3)C4)cccc2n1 [Compound 143, ethyl 5-[(adamantan-1-ylacetyl)amino]imidazo[1,2-a]pyridine-2-carboxylate]	< 2000	
CCOC(=O)Cc1cn2c(NC(=O)CC34CC5CC(CC(C5)C3)C4)cccc2n1 [Compound 145, ethyl {5-[(adamantan-1-ylacetyl)amino]imi-dazo[1,2-a]pyridin-2-yl}acetate]		< 2000
CCCNC(=O)Cc1cn2c(C(=O)NCC34CC5CC(CC(C5)C3)C4)cccc2n1 [Compound 146, N-(adamantan-1-ylmethyl)-2-[2-oxo-2-(propylamino)ethyl]imi-dazo[1,2-a]pyridine-5-carboxamide]		< 2000
O=C(Cc1cn2c(C(=O)NCC34CC5CC(CC(C5)C3)C4)cccc2n1)NCC1CC1 [Compound 147, N-(adamantan-1-ylmethyl)-2-{2-[(cyclopropylmeth-yl)amino]-2-oxoethyl}imidazo[1,2-a]pyridine-5-carboxamide]	< 2000	
O=C(Cc1cn2c(C(=O)NCC34CC5CC(CC(C5)C3)C4)cccc2n1)NC1CC1 [Compound 148, N-(adamantan-1-ylmethyl)-2-[2-(cyclopropylamino)-2-oxoethyl]imidazo[1,2-a]pyridine-5-carboxamide]	< 2000	
O=C(Cc1cn2c(C(=O)NCC34CC5CC(CC(C5)C3)C4)cccc2n1)NC1CCCCC1 [Compound 149, N-(adamantan-1-ylmethyl)-2-[2-(cyclohexylamino)-2-oxoethyl]imidazo[1,2-a]pyridine-5-carboxamide]	< 2000	
CC(C)NC(=O)Cc1cn2c(C(=O)NCC34CC5CC(CC(C5)C3)C4)cccc2n1 [Compound 150, N-(adamantan-1-ylmethyl)-2-[2-(isopropylamino)-2-oxoethyl]imidazo[1,2-a]pyridine-5-carboxamide]	< 2000	
O=C(Cc1cn2c(C(=O)NCC34CC5CC(CC(C5)C3)C4)cccc2n1)NC1CCC1 [Compound 151, N-(adamantan-1-ylmethyl)-2-[2-(cyclobutylamino)-2-oxoethyl]imidazo[1,2-a]pyridine-5-carboxamide]	< 2000	
